Article PMC4122235 (Biochimica et biophysica acta, 2014)
Like-named read-outs stand apart in the source and are kept apart here.

Assays:
TcuKam = TcuKam (Thermomonospora curvata, UniProt D1A6K4); assay: biochemical; type: binding
CarKam = assay: isothermal titration calorimetry, single-site fit; type: binding, Candidatus Arthromitus sp. SFB-mouse-NYU; conditions: 25 °C, 20 mM Tris pH 7.5, 10 mM magnesium acetate, 250 mM NH4Cl, 10 % glycerol, 6 mM β-mercaptoethanol, no 30S subunit
CacKam = CacKam (Catenulispora acidiphila, UniProt C7Q5P8); assay: biochemical; type: binding
(UniProt K2DC64) = assay: biochemical

Compound `Nc1ncnc2c1ncn2[C@@H]1O[C@H](CSCC[C@H](N)C(=O)O)[C@@H](O)[C@H]1O` [SAH] has a Kd (TcuKam) of 1.9 µM, a Kd (CarKam; read-out: Kd (μM) / SAH) of 4.1 µM and a Kd (CacKam) of 2.7 µM.

`C[S+](CC[C@H](N)C(=O)O)C[C@H]1O[C@@H](n2cnc3c(N)ncnc32)[C@H](O)[C@@H]1O` (stereo partly shown) [SAM] was tested, and the Kd (TcuKam) was 13 µM, the Kd (CarKam; read-out: Kd (μM) / SAM) was 24 µM and the Kd ((UniProt K2DC64)) was 75 µM. For the same compound, the Kd (CacKam) was 44 µM.
